Laboratory results reported in patent US20250066286A1, “COMPOSITIONS OF (Z)-ENDOXIFEN AND METHODS OF ENRICHMENT THEREOF” (Atossa Therapeutics, Inc., priority 2022, published 2025).

Test: Stability of (Z)-Endoxifen in acetone (HPLC peak table over time)
Type: physicochemical
Conditions: for E-form, RT 14.58, RRT 0.96 / HPLC peak RT 13.84, RRT 0.91 / HPLC peak RT 20.32, RRT 1.34 / HPLC peak RT 20.51, RRT 1.35 / HPLC peak RT 21.68, RRT 1.43 / HPLC peak RT 22.88, RRT 1.51 / HPLC peak RT 27.15, RRT 1.79 / HPLC peak RT 27.21, RRT 1.80 / HPLC peak RT 27.45, RRT 1.81 / HPLC peak RT 27.88, RRT 1.84 / HPLC peak RT 4.37, RRT 0.28 / Z-form, RT 15.13, RRT 1.00: acetone at reflux (56° C.); for HPLC peak RT 4.37, RRT 0.28 / Z-form, RT 15.13, RRT 1.00 / Z-form, RT 16.25, RRT 1.00: in % (unit assumed); for E-form, RT 15.40, RRT 0.95 / HPLC peak RT 3.14, RRT 0.19 / HPLC peak RT 4.25, RRT 0.26 / HPLC peak RT 14.68, RRT 0.90 / HPLC peak RT 17.69, RRT 1.09 / HPLC peak RT 20.47, RRT 1.26 / HPLC peak RT 20.80, RRT 1.28 / HPLC peak RT 21.56, RRT 1.33 / HPLC peak RT 21.83, RRT 1.34 / HPLC peak RT 22.68, RRT 1.39 / HPLC peak RT 22.76, RRT 1.40 / Z-form, RT 16.25, RRT 1.00: acetone, 40° C.

Compound `CC/C(=C(\c1ccc(O)cc1)c1ccc(OCCNC)cc1)c1ccccc1` [(Z)-endoxifen, (Z)-4-(1-(4-(2-(methylamino)ethoxy)phenyl)-2-phenylbut-1-enyl)phenol] has an E-form, RT 14.58, RRT 0.96 (3 hr) of 0.54%, an HPLC peak RT 13.84, RRT 0.91 (3 hr) of 0.05% and an HPLC peak RT 20.32, RRT 1.34 (3 hr) of 0.37%. For the same compound, the HPLC peak RT 20.51, RRT 1.35 (3 hr) was 0.06%, the HPLC peak RT 21.68, RRT 1.43 (3 hr) was 0.16% and the HPLC peak RT 22.88, RRT 1.51 (3 hr) was 0.13%. For the same compound, the HPLC peak RT 27.15, RRT 1.79 (3 hr) was 0.03%, the HPLC peak RT 27.21, RRT 1.80 (3 hr) was 0.05% and the HPLC peak RT 27.45, RRT 1.81 (3 hr) was 0.24%. For the same compound, the HPLC peak RT 27.88, RRT 1.84 (3 hr) was 0.04%, the “HPLC peak RT 4.37, RRT 0.28” value (3 hr) was 0.96 and the “Z-form, RT 15.13, RRT 1.00” value (3 hr) was 96.67. The E-form, RT 14.58, RRT 0.96 (19 hr) was 1.01%, the HPLC peak RT 13.84, RRT 0.91 (19 hr) was 0.04% and the HPLC peak RT 20.32, RRT 1.34 (19 hr) was 0.12%. For the same compound, the HPLC peak RT 20.51, RRT 1.35 (19 hr) was 0.04%, the HPLC peak RT 21.68, RRT 1.43 (19 hr) was 0.14% and the HPLC peak RT 22.88, RRT 1.51 (19 hr) was 0.09%. It also gave an HPLC peak RT 27.15, RRT 1.79 (19 hr) of 0.02%, an HPLC peak RT 27.21, RRT 1.80 (19 hr) of 0.04% and an HPLC peak RT 27.45, RRT 1.81 (19 hr) of 0.22%. For the same compound, the HPLC peak RT 27.88, RRT 1.84 (19 hr) was 0.04%, the “HPLC peak RT 4.37, RRT 0.28” value (19 hr) was 5.74 and the “Z-form, RT 15.13, RRT 1.00” value (19 hr) was 91.92. For the same compound, the E-form, RT 14.58, RRT 0.96 (27 hr) was 1.53%, the HPLC peak RT 13.84, RRT 0.91 (27 hr) was 0.04% and the HPLC peak RT 20.32, RRT 1.34 (27 hr) was 0.09%. The HPLC peak RT 20.51, RRT 1.35 (27 hr) was 0.1%, the HPLC peak RT 21.68, RRT 1.43 (27 hr) was 0.15% and the HPLC peak RT 22.88, RRT 1.51 (27 hr) was 0.06%. It also gave an HPLC peak RT 27.15, RRT 1.79 (27 hr) of 0.03%, an HPLC peak RT 27.21, RRT 1.80 (27 hr) of 0.04% and an HPLC peak RT 27.45, RRT 1.81 (27 hr) of 0.22%. The HPLC peak RT 27.88, RRT 1.84 (27 hr) was 0.04%, the “HPLC peak RT 4.37, RRT 0.28” value (27 hr) was 7.93 and the “Z-form, RT 15.13, RRT 1.00” value (27 hr) was 89.05. The E-form, RT 14.58, RRT 0.96 (43 hr) was 5.33%, the HPLC peak RT 13.84, RRT 0.91 (43 hr) was 0.04% and the HPLC peak RT 20.32, RRT 1.34 (43 hr) was 0.13%. The HPLC peak RT 20.51, RRT 1.35 (43 hr) was 0.05%, the HPLC peak RT 21.68, RRT 1.43 (43 hr) was 0.13% and the HPLC peak RT 22.88, RRT 1.51 (43 hr) was 0.05%. It also gave an HPLC peak RT 27.15, RRT 1.79 (43 hr) of 0.04%, an HPLC peak RT 27.21, RRT 1.80 (43 hr) of 0.05% and an HPLC peak RT 27.45, RRT 1.81 (43 hr) of 0.15%. The HPLC peak RT 27.88, RRT 1.84 (43 hr) was 0.04%, the “HPLC peak RT 4.37, RRT 0.28” value (43 hr) was 12.64 and the “Z-form, RT 15.13, RRT 1.00” value (43 hr) was 80.36. The E-form, RT 14.58, RRT 0.96 (T0) was 0.3%, the HPLC peak RT 13.84, RRT 0.91 (T0) was 0.04% and the HPLC peak RT 20.32, RRT 1.34 (T0) was 0.04%. It also gave an HPLC peak RT 20.51, RRT 1.35 (T0) of 0.12%, an HPLC peak RT 21.68, RRT 1.43 (T0) of 0.15% and an HPLC peak RT 22.88, RRT 1.51 (T0) of 0.03%. For the same compound, the HPLC peak RT 27.15, RRT 1.79 (T0) was 0.03%, the HPLC peak RT 27.21, RRT 1.80 (T0) was 0.05% and the HPLC peak RT 27.45, RRT 1.81 (T0) was 0.17%. For the same compound, the HPLC peak RT 27.88, RRT 1.84 (T0) was 0.04%, the “HPLC peak RT 4.37, RRT 0.28” value (T0) was 0.05 and the “Z-form, RT 15.13, RRT 1.00” value (T0) was 98.67. For the same compound, the E-form, RT 15.40, RRT 0.95 (4 hr) was 0.78%, the HPLC peak RT 3.14, RRT 0.19 (4 hr) was 0.15% and the “HPLC peak RT 4.25, RRT 0.26” value (4 hr) was 0.57. The HPLC peak RT 14.68, RRT 0.90 (4 hr) was 0.04%, the HPLC peak RT 17.69, RRT 1.09 (4 hr) was 0.08% and the “HPLC peak RT 20.47, RRT 1.26” value (4 hr) was 0.04. For the same compound, the HPLC peak RT 20.80, RRT 1.28 (4 hr) was 0.15%, the HPLC peak RT 21.56, RRT 1.33 (4 hr) was 0.08% and the HPLC peak RT 21.83, RRT 1.34 (4 hr) was 0.1%. The HPLC peak RT 22.68, RRT 1.39 (4 hr) was 0.1%, the HPLC peak RT 22.76, RRT 1.40 (4 hr) was 0.08% and the “Z-form, RT 16.25, RRT 1.00” value (4 hr) was 97.28. For the same compound, the E-form, RT 15.40, RRT 0.95 (20 hr) was 1.03%, the HPLC peak RT 3.14, RRT 0.19 (20 hr) was 0.11% and the “HPLC peak RT 4.25, RRT 0.26” value (20 hr) was 2.00. The HPLC peak RT 14.68, RRT 0.90 (20 hr) was 0.04%, the HPLC peak RT 17.69, RRT 1.09 (20 hr) was 0.08% and the “HPLC peak RT 20.47, RRT 1.26” value (20 hr) was 0.05. It also gave an HPLC peak RT 20.80, RRT 1.28 (20 hr) of 0.21%, an HPLC peak RT 21.56, RRT 1.33 (20 hr) of 0.08% and an HPLC peak RT 21.83, RRT 1.34 (20 hr) of 0.08%. The HPLC peak RT 22.68, RRT 1.39 (20 hr) was 0.09%, the HPLC peak RT 22.76, RRT 1.40 (20 hr) was 0.01% and the “Z-form, RT 16.25, RRT 1.00” value (20 hr) was 95.35. For the same compound, the E-form, RT 15.40, RRT 0.95 (24 hr) was 1.14%, the HPLC peak RT 3.14, RRT 0.19 (24 hr) was 0.13% and the “HPLC peak RT 4.25, RRT 0.26” value (24 hr) was 2.81. For the same compound, the HPLC peak RT 14.68, RRT 0.90 (24 hr) was 0.04%, the HPLC peak RT 17.69, RRT 1.09 (24 hr) was 0.09% and the “HPLC peak RT 20.47, RRT 1.26” value (24 hr) was 0.05. The HPLC peak RT 20.80, RRT 1.28 (24 hr) was 0.17%, the HPLC peak RT 21.56, RRT 1.33 (24 hr) was 0.09% and the HPLC peak RT 21.83, RRT 1.34 (24 hr) was 0.01%. The HPLC peak RT 22.68, RRT 1.39 (24 hr) was 0.07%, the HPLC peak RT 22.76, RRT 1.40 (24 hr) was 0.02% and the “Z-form, RT 16.25, RRT 1.00” value (24 hr) was 94.73. For the same compound, the E-form, RT 15.40, RRT 0.95 (28 hr) was 1.26%, the HPLC peak RT 3.14, RRT 0.19 (28 hr) was 0.11% and the “HPLC peak RT 4.25, RRT 0.26” value (28 hr) was 3.14. For the same compound, the HPLC peak RT 14.68, RRT 0.90 (28 hr) was 0.04%, the HPLC peak RT 17.69, RRT 1.09 (28 hr) was 0.1% and the “HPLC peak RT 20.47, RRT 1.26” value (28 hr) was 0.06. For the same compound, the HPLC peak RT 20.80, RRT 1.28 (28 hr) was 0.19%, the HPLC peak RT 21.56, RRT 1.33 (28 hr) was 0.09% and the HPLC peak RT 21.83, RRT 1.34 (28 hr) was 0.01%. The HPLC peak RT 22.68, RRT 1.39 (28 hr) was 0.09%, the HPLC peak RT 22.76, RRT 1.40 (28 hr) was 0.02% and the “Z-form, RT 16.25, RRT 1.00” value (28 hr) was 93.99. For the same compound, the E-form, RT 15.40, RRT 0.95 (T0) was 0.65%, the HPLC peak RT 3.14, RRT 0.19 (T0) was 0.16% and the “HPLC peak RT 4.25, RRT 0.26” value (T0) was 0.12. The HPLC peak RT 14.68, RRT 0.90 (T0) was 0.04%, the HPLC peak RT 17.69, RRT 1.09 (T0) was 0.08% and the “HPLC peak RT 20.47, RRT 1.26” value (T0) was 0.03. It also gave an HPLC peak RT 20.80, RRT 1.28 (T0) of 0.07%, an HPLC peak RT 21.56, RRT 1.33 (T0) of 0.08% and an HPLC peak RT 21.83, RRT 1.34 (T0) of 0.07%. The HPLC peak RT 22.68, RRT 1.39 (T0) was 0.03%, the HPLC peak RT 22.76, RRT 1.40 (T0) was 0.06% and the “Z-form, RT 16.25, RRT 1.00” value (T0) was 98.28. For the same compound, the “Stability of (Z)-endoxifen produced from methods using acetone recrystallization only” value (summary of TABLES 2 and 3) was “unstable”.
